{"source": "patent US20100168210A1", "about": "“T-Cell Cytokine-Inducing Surface Molecules and Methods of Use” (priority 2007, published 2010)", "key": {"[1]": {"test_system": "T-cell-mediated TNFα production from human Mφ", "test": "T cell membrane-Mφ cell contact bioassay (activated T-cell mediated cytokine production)", "assay_type": "cell-based", "conditions": "anti-CD3/anti-CD28 activated T-cell membranes; CD14+ Mφ; FIG. 14", "protocol": "Primary T cells or H9 cells were washed with cold PBS and cell pellets were resuspended in freshly made 1% paraformaldehyde at 5×10^6 cells/ml. Cells were fixed on ice for 2 hours, and then washed with 20× volume of cold PBS three times. Following the third wash, the cells were kept in PBS at 4° C. overnight to allow diffusion of paraformaldehyde. Cells were centrifuged and washed one more time. The fixed T cells were resuspended in medium at 1×10^7 cells/ml and dispensed into a 96 well U bottom plate at about 1×10^6/ml THP-1 cells 100 μl per well. Primary T cells or H9 cells (100 μl per well) were added at 8×, 4×, and 2×10^6 cells/ml. The plates were incubated at 37° C., in humidified 5% CO2 for 48 hours. Plates were centrifuged at 1,500 rpm for 5 minutes and supernatant (120 μl) transferred into a fresh plate. The supernatant was stored at −20° C. until used. […]\nUsing the T cell membrane-Mφ cell contact bioassay, small molecule antagonists were identified that differentially block anti-CD3/anti-CD28 activated T-cell mediated—but not LPS stimulated—TNFα and IL-1β production from peripheral blood resident CD14^+ Mφ. Several kinase inhibitors were selected and assessed for the effects of these compounds in blocking TNFα and/or IL-1β production using a validated T-cell membrane-Mφ contact bioassay. […]"}, "[2]": {"test_system": "Murine Collagen-Induced Arthritis", "test": "Murine Collagen-Induced Arthritis study", "assay_type": "in vivo, mice", "conditions": "50 mg/kg P.O. once per day beginning at day +1; day +13 after induction; FIG. 18", "protocol": "Mice were immunized with CII+CFA on day 0 and boosted on day 21 with CII+IFA. A total of 10 DBA female mice per group were used. Drugs were administered as shown and started on the first day of initial signs of paw swelling/arthritis. Mean arthritis score (see data below) was assessed according to the procedure of Bendele et al., Arthritis & Rheumatism, 2000, 43(12), pp 2648-2659. […] Mice were treated 8 days after showing signs of collagen induced arthritis.\nFIG. 18 is a joint histopathology of representative mice. In FIG. 18, panel A denotes a knee joint obtained from a DBA mouse with collagen-induced arthritis treated with an isotype-control rat-anti-mouse MAb (negative control) showing that […] over the course of this control treatment."}, "[3]": {"test_system": "LPS-stimulated TNFα and IL-1β production", "test": "LPS-stimulated Mφ cytokine production", "assay_type": "cell-based, human", "conditions": "FIG. 14", "text": "Using the T cell membrane-Mφ cell contact bioassay, small molecule antagonists were identified that differentially block anti-CD3/anti-CD28 activated T-cell mediated—but not LPS stimulated—TNFα and IL-1β production from peripheral blood resident CD14^+ Mφ. Several kinase inhibitors were selected and assessed for the effects of these compounds in blocking TNFα and/or IL-1β production using a validated T-cell membrane-Mφ contact bioassay. […] Therefore, the activated T-cell membrane-Mt contact bioassay using human T-cells and Mφ can be used to establish high-throughput screens with recombinant TCISM (once identified and cloned) to identify orally-active, small molecule antagonists that specifically target adaptive, but not LPS-mediated, innate immunity. Some orally active, small molecule TNFα and/or IL-1β inhibitors which interfere specifically with T-cell mediated Mφ activation, leading to enhanced cytokine production but not LPS-mediated Mφ cytokine release, have a favorable therapeutic/side effect profile in T-cell mediated skin diseases such as Ps."}}, "data": [{"molecule": "C[S+]([O-])c1ccccc1-n1cnc(-c2ccc(F)cc2)c1-c1ccncc1", "note": "(stereo not drawn) [Compound C]", "values": [{"measurement": "Inhibition of T-cell-mediated TNFα production from human Mφ", "setting": "[1]", "value": "completely inhibit"}, {"measurement": "Joint histopathology (knee joint inflammation)", "setting": "[2]", "value": "reduced inflammation"}, {"measurement": "Effect on LPS-stimulated TNFα and IL-1β production", "setting": "[3]", "value": "without having any significant effect"}]}]}
